Results from article PMC5618421, “Anti-Inflammatory Effects of Curvularin-Type Metabolites from a Marine-Derived Fungal Strain Penicillium sp. SF-5859 in Lipopolysaccharide-Induced RAW264.7 Macrophages” (Marine Drugs, 2017).

Legend:
Type in all cases: cell-based
RAW264.7 macrophages = test: Cell viability (MTT) cytotoxic assay; settings: RAW264.7 macrophages, MTT
Procedure: RAW264.7 macrophages were maintained at a density of 5 × 10^5 cells/mL in RPMI1640 medium supplemented with 10% heat-inactivated FBS, penicillin G (100 units/mL), streptomycin ([…]), and L-glutamine (2 mM), and were incubated at 37 °C in a humidified atmosphere containing 5% CO2. For determination of cell viability, cells (1 × 10^5 cells/well in 96-well plates) were incubated with 3-(4,5-dimethylthiazol-2-yl)-2,5-diphenyltetrazolium bromide (MTT) at a final concentration of 0.5 mg/mL for 3 h, and the formazan formed was dissolved in acidic 2-propanol. The optical density was measured at 540 nm with a microplate reader (BioRad, Hercules, CA, USA). The optical density of the formazan formed in control (untreated) cells was considered to represent 100% viability.

COX-2 = test: Western blot of COX-2 protein expression in LPS-stimulated RAW264.7 macrophages; settings: pre-treated 3 h, LPS 24 h
Description: Therefore, we further tested whether inhibitory effects of 8 against NO and PGE2 productions are correlated with the protein expression of pro-inflammatory enzymes (i.e., iNOS and COX-2, respectively), which are known to catalyze the production of NO and PGEs in LPS-stimulated cells. […] Upon the stimulation by LPS, macrophages can also trigger the production of pro-inflammatory cytokines such as TNF-α, and ILs. The overproduction of these cytokines contributes to the pathogenesis of inflammatory diseases. Thus, we further evaluated the effects of 8 on the mRNA expression of pro-inflammatory cytokines in the LPS-induced cells. The cells were pre-treated with indicated concentration for 3 h, followed by LPS stimulation (1 μg/mL) for 6 h. The mRNA expression of pro-inflammatory cytokines was determined by RT-qPCR.
Figure 2 Effects of 8 on protein expression levels of iNOS and COX-2 (a), and mRNA expression levels of IL-1β (Il1b) (b), IL-6 (Il6) (c), and TNF-α (Tnf) (d) in RAW264.7 macrophages. The cells were pre-treated for 3 h with the indicated concentrations of 8 and stimulated for 24 h (a), and 6 h (b–d) with LPS (1 μg/mL). The measurement of western blot analysis and RNA quantification for Il1b, Il6, and Tnf expression were performed as described in the Materials and Methods. […]
The proteins of iNOS, COX-2, NF-κB, and MAPKs were measured by Western blot analysis. […]

[1] = test system: PGE2 production in LPS-treated RAW 264.7 macrophages; test: Inhibition of PGE2 production (PGE2 ELISA kit) in LPS-treated RAW264.7 macrophages; settings: Mus musculus, RAW264.7 macrophages pre-treated 3 h with compound, then LPS (1 μg/mL) 24 h
Procedure: All isolated compounds (1–9) were evaluated for their anti-inflammatory effects. […] NO is a small molecule which is an intracellular mediator produced in various immune cells. It plays a pivotal role in the physiological and pathological condition of inflammatory symptoms. PGE2 can also regulate the immune and inflammatory responses. In this study, RAW264.7 macrophages were pre-treated for 3 h in the medium containing non-toxic concentrations (Table 2) of each compound (1–9), and then LPS (1 μg/mL) was treated for 24 h. According to the LPS stimulation of RAW264.7 macrophages, production of NO and PGE2 was increased, and the effects of all compounds on the production level of NO and PGE2 were evaluated by the Griess reaction and a PGE2 kit, respectively. […] To evaluate the impact of phenol and resorcinol groups in the curvularin-type metabolites for the anti-inflammatory activity, 5-O-methyl and 5,7,-di-O-methyl derivatives of curvularin (3a and 3b, respectively), as well as 5-O-acetyl and 5,7,-di-O-acetyl derivatives of curvularin (3c and 3d, respectively), were prepared, and the structures of 3a–3d were identified by comparison the ^1H and ^13C-NMR spectroscopic data with those of curvularin (3), and confirmed by their HRESIMS. […] The position of the methoxy group in 3a was confirmed by HMBC correlation between methoxy signal at δH 3.77 (3H, s, 5-OCH3) and δC 161.8 (C-5). The NOESY cross-peaks between acetyl proton ([…]) with H-2, H-4, and H-16 of 3c were used to identify the position of the acetyl group in 3c. […] Further systematic investigations are needed to clarify the structure activity relationship associated with the modification of the aliphatic part of the molecule.
RPMI1640, fetal bovine serum (FBS), and other tissue culture reagents were purchased from Gibco BRL Co. (Grand Island, NY, USA). All other chemicals were obtained from Sigma-Aldrich Co. (St. Louis, MO, USA). Primary antibodies (COX-2: sc-1745; iNOS: sc-650; IκB-α: sc-371; p-IκB-α: sc-8404; p50: sc-7178; p65: sc-8008, Santa Cruz Biotechnology, Dallas, TX, USA, p-ERK: #9101; ERK: #9102; p-JNK: #9251; JNK: #9252S; p-p38: #9211; p38: 9212S, Cell Signaling Technology, Danvers, MA, USA) and secondary antibodies (mouse: ap124p; goat: ap106p; rabbit: ap132p, Millipore, Billerica MA, USA). Enzyme-linked immunosorbent assay (ELISA) kits for PGE2 were purchased from R and D Systems, Inc. (Minneapolis, MN, USA).

SMILES: C[C@H]1CCC/C=C/C(=O)c2c(O)cc(O)cc2CC(=O)O1 [Compound 8, (10E,15S)-10,11-dehydrocurvularin]
- Cytotoxicity (the maximum concentration not affecting cell viability) (RAW264.7 macrophages): 20 µM
- COX-2 protein expression (COX-2): attenuation of the excessive protein expression of iNOS and COX-2 in a dose-dependent manner
- IC50 [1]: 2700 ± 400 nM
